Reference: patent US20090246134A1, “COMPOSITIONS AND METHODS FOR MODULATING GATED ION CHANNELS” (PainCeptor Pharma Corporation, priority 2007, published 2009)
Values joined by “and” are separate entries in the source; they are usually repeats but may differ in a detail not shown here. Equal values may be shown once.

Legend:
[1] = Plasma composition analysis, parent compound and metabolites by MS; type: in vivo; settings: rat plasma
Procedure: Rats receive compounds (5 mg/kg) dissolved in HPβCD 15%, dextrose 2.5%, pH 5 by intravenous (i.v). route or (25-30 mg/kg) dissolved in HPβCD 15%, dextrose 2.5%, […] (s.c.) route or (50-150 mg/kg) dissolved in HPβCD 15%, dextrose 2.5%, pH 5 by oral (p.o.) route. After the treatment, approximately 100 μl of blood sample is collected and the accurate bleeding time is recorded for each sample. Each blood sample is collected into Microvette blood collection tube containing anticoagulant lithium heparin. Following collection, the samples are centrifuged at […] for 15 minutes (to avoid haemolysis) and the plasma obtained from each is recovered and stored frozen (at −80° C.) pending analysis. Frozen samples are shipped on dry ice to quantify drug concentration within plasma after extraction procedure as previously described in Example 13.

[2] = system: native sensory-neuron gated ion channels; assay: Patch-clamp electrophysiology of sensory neurons in primary culture; type: cell-based, rat; settings: n=3
Description: This example describes another in vitro assessment of the inhibitory activity of the compounds of the present invention utilizing patch-clamp electrophysiology of sensory neurons in primary culture.
Sensory neurons can be isolated and cultured in vitro from different animal species. The most widely used protocols use sensory neurons isolated from neonatal (Eckert, et al. (1997) J Neurosci Methods 77:183-190) and embryonic (Vasko, et al. (1994) J Neurosci 14:4987-4997) rat. […] Electrophysiology is performed similarly as described above in Example 2. In the voltage-clamp mode, trans-membrane currents are recorded. Compounds A and H at 1 μM inhibit the pH 6.5-induced inward current. In the current-clamp mode, change in the trans-membrane potential are recorded. Under acidic conditions (e.g., pH 6.5) the membrane depolarizes, leading to the firing of action potentials. Compounds A and H at 1 μM inhibit the acid-induced membrane depolarization and reduce the ensuing rate of action potential firing.

[3] = Liver microsomes stability and metabolite identification (LC-MS), dog; type: in vitro ADME
[4] = system: formalin-induced pain in Sprague-Dawley rats; assay: Formalin model of acute tonic pain; type: in vivo, rat
Procedure: Male Sprague-Dawley rats are housed together in groups of three animals under standard conditions with unrestricted access to food and water. All experiments are conducted according to the ethical guidelines for investigations of experimental pain in conscious animals (Zimmerman, 1983)
Assessment of formalin-induced flinching behavior in normal, uninjured rats (body weight 150-180 g) was made with the use of an Automated Nociception Analyser (University of California, San Diego, USA). Briefly, this involved placing a small C-shaped metal band (10 mm wide×27 mm long) on the hindpaw of the rat to be tested. The rats (four rats were included in each testing session) were then placed in a cylindrical plexiglass observation chamber (diameter 30.5 cm and height 15 cm) for 20 min for adaptation purposes prior to being administered drug or vehicle according to the experimental paradigm being followed. After adaptation, individual rats were then gently restrained and formalin (5% in saline, 50 μl, s.c.) was injected into the plantar surface of the hindpaw using a 27 G needle. Rats were then returned to their separate observation chambers, each of which were in turn situated upon an enclosed detection device consisting of two electromagnetic coils designed to produce an electromagnetic field in which movement of the metal band could be detected. The analogue signal was then digitised and a software algorithm (LabView) applied to enable discrimination of flinching behaviour from other paw movements. A sampling interval of 1 min was used and on the basis of the resulting response patterns 5 phases of nociceptive behaviour were identified and scored: first phase (P1; 0-5 min), interphase (Int; 6-15 min), second phase (P2; […]), phase 2A (P2A; 16-40 min) and phase 2B (P2B; 41-60 min).
Nociceptive behavior was also determined manually every 5 min by measuring the amount of time spent in each of four behavioral categories: 0, treatment of the injected hindpaw is indistinguishable from that of the contralateral paw; 1, the injected paw has little or no weight placed on it; 2, the injected paw is elevated and is not in contact with any surface; 3, the injected paw is licked, bitten, or shaken. A weighted nociceptive score, ranging from 0 to 3 was calculated by multiplying the time spent in each category by the category weight, summing these products, and dividing by the total time for each 5 min block of time. (Coderre et al., Pain 1993; 54: 43). On the basis of the resulting response patterns, 2 phases of nociceptive behavior were identified and scored: first phase (P1; 0-5 min), interphase (Int; 6-15 min), second phase (P2; […]), phase 2A (P2A; 16-40 min) and phase 2B (P2B; 41-60 min).
Statistical analysis was performed using Prism™ 4.01 software package (GraphPad, San Diego, Calif., USA). The difference in response levels between treatment groups and control vehicle group was analyzed using an ANOVA followed by Bonferroni's method for post-hoc pair-wise comparisons. A p value<0.05 was considered to be significant
The effect of Compound A on pain induced by intraplantar formalin injection was investigated. Compound A was administered i.p. 30 min. before the formalin. Compound A was able to reduce the total pain score behavior (flinching, licking, biting) in phase 1 and 2 of the formalin test.

[5] = dog microsomes 60 min (samples 23-25)
[6] = i.p. 30 min before formalin, n=6-8

- Plasma Component: N-desMe or desEt ([1]; IV 5 mg/kg): Small
- Plasma Component: O-desMe ([1]; IV 5 mg/kg): Trace
- Plasma Component: N-desMe or desEt ([1]; PO 50 mg/kg): Small
- Plasma Component: O-desMe ([1]; PO 50 mg/kg): Trace
- Total % metabolites ([3]; % peak area relative to parent at T0, 60 min incubation, dog microsomes): 2.74%
- Compound A metabolite identification: m/z 342 [3, 5]: weak
- Compound A metabolite identification: m/z 356 (parent) [3, 5]: Yes
- Compound A metabolite identification: m/z 372 [3, 5]: Yes
- Compound A metabolite identification: m/z 412 [3, 5]: no
- Calc. Conc. ([3]; dog microsomes, time 0 min): 4.71 µM and 5.14 µM
- Calc. Conc. ([3]; dog microsomes, time 60 min): 3.95 µM and 4.05 µM and 4.10 µM
- relationship between dose and plasma exposure ([4]; formalin experiments, i.p.): linear relationship
Compound: COc1ccc(F)cc1-c1cc2c(c3c1CCN(C)C3)NC(=O)C2=NO [Compound A, 5-(5-fluoro-2-methoxyphenyl)-6,7,8,9-tetrahydro-3-(hydroxyimino)-8-methyl-1H-pyrrolo[3,2-h]isoquinoline-2(3H)-one]
- acid-induced membrane depolarization ([2]; current-clamp mode, 1 μM): inhibit
- rate of action potential firing ([2]; current-clamp mode, acidic conditions, 1 μM): reduce
- activity of native sensory-neuron gated ion channels [2]: effectively modulate
- pH 6.5-induced inward current ([2]; voltage-clamp mode, 1 μM): inhibit
- ED50 ([4]; Rattus norvegicus, ip, i.p. 30 min before formalin, read-out: ED50, Phase 2 of the total pain score): ~12 mg/kg
- effects on phases 1 and 2, specific pain behaviors (licking and biting) only [4, 6]: quite pronounced
- total pain score behavior (flinching, licking, biting) in phase 1 and 2 of the formalin test [4, 6]: reduce
- acute tonic pain induced by formalin injection in the paw ([4]; rat, in vivo): block
